System: GM2 gangliosidosis patients
Test: Observational case series in GM2 gangliosidosis patients
Assay type: in vivo, human
Conditions: three GM2 gangliosidosis patients
Experimental: Observational studies in GM2 gangliosidosis Patients: In a prospective observational case series in three patients with genetically proven GM2 gangliosidoses (2 patients with Tay-Sachs disease, 1 patient with Sandhoff disease) the symptomatic effects of ADLL was evaluated. Patients were treated with 0.1 g per kg body weight per day, for at least four weeks and the clinical effects determined using the Scale for the Assessment and Severity of Ataxia (SARA), the 8-meter walk test (8MWT) and the Montreal Cognitive Assessment (MoCA). Consent from all participants was obtained.
A patient with a genetically confirmed diagnosis of Tay-Sachs disease presented with dysarthrophonia, tremor, ataxia of stance and gait, paraparesis, and muscular atrophy. Prior to treatment, the patient required the support of both a caregiver on one side and a wall on the other in order to walk down a corridor. The patient was receiving sodium-valproate (500 mg/d), lithium (450 mg/d), and risperidone (3 mg/d) (medications for clinically diagnosed bipolar disorder), and continued to do so during treatment with N-Acetyl-DL-Leucine. The patient was also receiving physiotherapy, ergotherapy, and logotherapy twice a week.
A patient with a genetically confirmed diagnosis of Tay-Sachs disease presented with ataxia of stance and gait, fine motor impairment, paraparesis of lower extremities and muscular atrophy. They were receiving physiotherapy, ergotherapy and logotherapy and continued to do so during treatment with N-Acetyl-DL-Leucine.
A patient suffering from Sandhoff disease, with muscle hypotrophy, epileptic cramps (tonic-clonic, about 10 seconds, self-limiting), disordered ocular movement and anarthria. Their daily activities were very limited, being unable to eat, wash, or dress themself. They were receiving levetiracetam (1 g/d), lamotrigine (100 mg/d), omeprazole (20 mg/d), and miglustat (300 mg/d), in addition to physiotherapy, ergotherapy and logotherapy, and continued to do so during treatment with N-Acetyl-DL-Leucine.

[1] = 0.1 g per kg body weight per day, baseline vs one month on medication

CC(=O)NC(CC(C)C)C(=O)O (racemic) [ADLL, N-acetyl-DL-leucine]
improvement reported by patients and caregivers: subjective improvement
mean improvement of the 8-M-Walking-Test (8MWT) [1]: 17.8%
mean improvement of the Montreal Cognitive Assessment (MoCA) [1]: 42%
mean improvement of the Scale for Assessment and Rating of Ataxia (SARA) [1]: 20.3%

Source: US12697316B2, “Combination therapy with acetyl-leucine and miglustat” (INTRABIO LTD., priority 2019, dated 2026)
